Reference: patent publication US8846570B2, “Herbicidal compositions comprising 4-amino-3-chloro-5-fluoro-6-(4-chloro-2-fluoro-3-methoxyphenyl)pyridine-2-carboxylic acid or a derivative thereof and microtubule inhibiting herbicides” (Dow AgroSciences LLC, priority 2012, dated 2014)
Where two headings read alike, the source gives them in different places.

Legend:
Format in all cases: in vivo
[1] = tested on: Ipomoea hederacea (L.) Jacq. (IPOHE); assay: Pre-emergence soil-applied, greenhouse: visual weed control; settings: Propyzamide 1120 g ai/ha alone; soil-applied pre-emergence; 33 DAA
Description: (§1) Seeds or nutlets of the desired test plant species were planted in a soil matrix prepared by mixing a loam soil (e.g., 32 percent silt, 23 percent clay, and 45 percent sand, with a pH of about 6.5 and an organic matter content of about 1.9 percent) and calcareous grit in an 80 to 20 ratio. The soil matrix was contained in plastic pots with a volume of 1 quart and a surface area of 83.6 square centimeters (cm^2).
(§2) Forms of compound A were applied on an acid equivalent basis.
(§3) For treatments comprised of formulated compounds, measured amounts of compounds were placed individually in 25 mL glass vials and diluted in a volume of 1.25% (v/v) Agri-Dex® crop oil concentrate (COC) to obtain 12× stock solutions. […] Application solutions were prepared by adding an appropriate amount of each stock solution (e.g., 1 mL) and diluted to the appropriate final concentrations with the addition of 10 mL of an aqueous mixture of 1.25% (v/v) COC so that the final spray solutions contained 1.25% (v/v) COC.
(§4) For treatments comprised of formulated and technical compounds, weighed amounts of the technical materials were placed individually in 25 mL glass vials and dissolved in a volume of 97:3 (v/v) acetone/DMSO to obtain 12× stock solutions, and measured amounts of the formulated compounds were placed individually in 25 mL glass vials and diluted in a volume of 1.5% (v/v) COC or water to obtain 12× stock solutions. […] Application solutions were prepared by adding an appropriate amount of each stock solution (e.g., 1 mL) and diluted to the appropriate final concentrations with the addition of an appropriate amount of an aqueous mixture of 1.5% (v/v) COC so that the final spray solutions contained 1.25% (v/v) COC. As required, additional water and/or 97:3 (v/v) acetone/DMSO was added to individual application solutions so that the final acetone and DMSO concentrations of the application solutions being compared were 8.1% and 0.25%, respectively.
(§5) All stock solutions and applications solutions were visually inspected for compound compatibility prior to application. Spray solutions were applied to the soil with an overhead Mandel track sprayer equipped with a 8002E nozzles calibrated to deliver 187 L/ha over an application area of 0.503 m^2 at a spray height of 18 inches (46 cm) above average pot height. Control pots were sprayed in the same manner with the solvent blank.
The treated and control pots were placed in a greenhouse and top watered as needed. […] The pots were maintained in a greenhouse with an approximate 14 hr photoperiod which was maintained at about 29° C. during the day and 26° C. during the night. Nutrients (Peters® Excel 15-5-15 5-Ca 2-Mg) were applied in the irrigation solution as needed and water was added on a regular basis. Supplemental lighting was provided with overhead metal halide 1000-Watt lamps as necessary. After approximately 4 weeks, the condition of the test plants as compared with that of the untreated plants was determined visually and scored on a scale of 0 to 100 percent where 0 corresponds to no injury or growth inhibition and 100 corresponds to complete kill.
(§6) Colby's equation was used to determine the herbicidal effects expected from the mixtures (Colby, S. R. 1967. Calculation of the synergistic and antagonistic response of herbicide combinations. Weeds 15:20-22.).
(§7) The following equation was used to calculate the expected activity of mixtures containing two active ingredients, A and B: Expected=A+B−(A×B/100)

[2] = tested on: Ipomoea hederacea Jacq. (IPOHE); assay: Postemergence foliar-applied, direct seeded rice, greenhouse: visual weed control; settings: post-emergence, read-out: Visual Weed Control (%) Obs
Procedure: Seeds or nutlets of the desired test plant species were planted in a soil matrix prepared by mixing a loam or sandy loam soil (e.g., 28.6 percent silt, 18.8 percent clay, and 52.6 percent sand, with a pH of about 5.8 and an organic matter content of about 1.8 percent) and calcareous grit in an 80 to 20 ratio. The soil matrix was contained in plastic pots with a volume of 1 quart and a surface area of 83.6 cm^2. […] The plants were grown for 8-22 days in a greenhouse with an approximate 14 h photoperiod which was maintained at about 29° C. during the day and 26° C. during the night. Nutrients (Peters Excel® 15-5-15 5-Ca 2-Mg and iron chelate) were applied in the irrigation solution as needed and water was added on a regular basis. Supplemental lighting was provided with overhead metal halide 1000-Watt lamps as necessary. The plants were employed for testing when they reached the first through fourth true leaf stage.
as §2
as §3, with “oil concentrated” for “oil concentrate (COC)”, “(v/v) crop oil concentrate” for “(v/v) COC”, “contained 1.25+/−0.05%” for “contained 1.25%”, “(v/v) crop oil concentrate.” for “(v/v) COC.”
As required, additional water and/or 97:3 v/v acetone/DMSO was added to individual application solutions so that the final acetone and DMSO concentrations of the application solutions being compared were 8.1% and 0.25%, respectively.
All stock solutions and applications solutions were visually inspected for compound compatibility prior to application. Spray solutions were applied to the plant material with an overhead Mandel track sprayer equipped with a 8002E nozzles calibrated to deliver 187 L/ha over an application area of 0.503 m^2 at a spray height of 18 to 20 inches (46 to 50 cm) above average plant canopy height. Control plants were sprayed in the same manner with the solvent blank.
The treated plants and control plants were placed in a greenhouse as described above and watered by sub-irrigation to prevent wash-off of the test compounds. After approximately 3 weeks, the condition of the test plants as compared with that of the untreated plants was determined visually and scored on a scale of 0 to 100 percent where 0 corresponds to no injury or growth inhibition and 100 corresponds to complete kill.
as §6, §7

[3] = tested on: Setaria faberi Herrm. (SETFA); assay: Pre-emergence soil-applied, greenhouse: visual weed control
Description: as §1
(§8) Treatments consisted of the benzyl ester of 4-amino-3-chloro-5-fluoro-6-(4-chloro-2-fluoro-3-methoxy-phenyl)pyridine-2-carboxylic acid (compound A) formulated as an SC (suspension concentrate) and various herbicidal components alone and in combination. Forms of compound A were applied on an acid equivalent basis.
(§9) Treatment requirements were calculated based upon the rates being tested, the concentration of active ingredient or acid equivalent in the formulation, and a 12 mL application volume at a rate of 187 L/ha.
as §3, §4, §5
(§10) The treated and control pots were placed in a greenhouse and top watered as needed. When required to ensure good germination and healthy plants, a fungicide treatment and/or other chemical or physical treatment was applied. The pots were maintained in a greenhouse with an approximate 14 hr photoperiod which was maintained at about 29° C. during the day and 26° C. during the night. Nutrients (Peters® Excel 15-5-15 5-Ca 2-Mg) were applied in the irrigation solution as needed and water was added on a regular basis. Supplemental lighting was provided with overhead metal halide 1000-Watt lamps as necessary. After approximately 4 weeks, the condition of the test plants as compared with that of the untreated plants was determined visually and scored on a scale of 0 to 100 percent where 0 corresponds to no injury or growth inhibition and 100 corresponds to complete kill.
(§11) Colby's equation was used to determine the herbicidal effects expected from the mixtures (Colby, S. R. 1967. Calculation of the synergistic and antagonistic response of herbicide combinations. Weeds 15:20-22.). […]

[4] = tested on: Brachiaria platyphylla (Groseb.) Nash or Urochloa platyphylla (Nash) R.D. Webster (BRAPP); assay: as above
Description: as §1, §8, §9, §3, §4, §5, §10, §11

[5] = tested on: Echinochloa crus-galli (L.) P. Beauv. (ECHCG); assay: as above
Description: as §1, §8, §9, §3, §4, §5, §10, §11

[6] = tested on: Sesbania exaltata (Raf.) Cory/Rydb. Ex Hill (SEBEX); assay: as above
Description: as §1, §8, §9, §3, §4, §5, §10, §11

[7] = tested on: Echinochloa colonum (L.) Link (ECHCO); assay: as above
Description: as §1, §8, §9, §3, §4, §5, §10, §11

[8] = tested on: Xanthium strumarium L. (XANST); assay: as above; settings: 27 DAA
Description: as §1, §8, §9, §3, §4, §5, §10, §11

SMILES | Visual Weed Control (%) - 33 DAA IPOHE Obs [1] [%] | pest or weed control at 70 g/ha ([2]; 528 h, 22 DAA, 70 g ai/ha) [%] | pest or weed control at 140 g/ha ([2]; 528 h, 22 DAA, 140 g ai/ha) [%] | pest or weed control at 280 g/ha ([2]; 528 h, 22 DAA, 280 g ai/ha) [%] | Visual Weed Control (%) - 33 DAA SETFA Obs ([3]; Propyzamide 280 g ai/ha alone) [%] | Visual Weed Control (%) - 33 DAA SETFA Obs ([3]; Propyzamide 560 g ai/ha alone) [%] | Visual Weed Control (%) - 33 DAA SETFA Obs ([3]; Propyzamide 1120 g ai/ha alone) [%] | Visual Weed Control (%) - 33 DAA BRAPP Obs ([4]; Propyzamide 280 g ai/ha alone) [%] | Visual Weed Control (%) - 33 DAA BRAPP Obs ([4]; Propyzamide 560 g ai/ha alone) [%] | Visual Weed Control (%) - 33 DAA ECHCG Obs ([5]; Propyzamide 560 g ai/ha alone) [%] | Visual Weed Control (%) - 33 DAA ECHCG Obs ([5]; Propyzamide 1120 g ai/ha alone) [%] | Visual Weed Control (%) - 33 DAA SEBEX Obs ([6]; Propyzamide 280 g ai/ha alone) [%] | Visual Weed Control (%) - 33 DAA SEBEX Obs ([6]; Propyzamide 560 g ai/ha alone) [%] | Visual Weed Control (%) - 33 DAA SEBEX Obs ([6]; Propyzamide 1120 g ai/ha alone) [%] | Visual Weed Control (%) - 33 DAA ECHCO Obs ([7]; Propyzamide 280 g ai/ha alone) [%] | Visual Weed Control (%) - 33 DAA ECHCO Obs ([7]; Propyzamide 560 g ai/ha alone) [%] | Visual Weed Control (%) - 33 DAA ECHCO Obs ([7]; Propyzamide 1120 g ai/ha alone) [%] | pest or weed control at 280 g/ha ([2]; 480 h) [%] | Visual Weed Control (%) Obs ([8]; 280 g ai/ha) [%] | Visual Weed Control (%) Obs ([8]; 560 g ai/ha) [%]
C#CC(C)(C)NC(=O)c1cc(Cl)cc(Cl)c1 [Propyzamide] | 35 | 0 | 0 | 0 | 0 | 68 | 93 | 20 | 37 | 35 | 53 | 20 | 13 | 37 | 0 | 23 | 80 | – | – | –
COC(=O)c1c(C(F)F)nc(C(F)(F)F)c(C2=NCCS2)c1CC(C)C [Thiazopyr, methyl 2-(difluoromethyl)-5-(4,5-dihydro-2-thiazolyl)-4-(2-methylpropyl)-6-(trifluoromethyl)-3-pyridinecarboxylate] | – | – | – | – | – | – | – | – | – | – | – | – | – | – | – | – | – | 40 | 15 | 10
